Source: patent US10668040B2, “Treatment of urea cycle disorders in neonates and infants” (Horizon Therapeutics, LLC, priority 2017, dated 2020)

Test system: UCD patients
Experiment: Example 3: TEAEs, serious and non-serious adverse events
Assay type: in vivo
Excerpt: Sixteen newborn infants aged 0 to 27 days, and 10 infants and toddlers aged 28 days to 23 months received RAVICTI Oral Liquid administered just prior to breastfeeding or intake of formula or food. The recommended dosing regimen was 3-6 times per day depending on feeding schedule.
Number of Subjects with Treatment-Emergent Adverse Events (TEAEs), Serious TEAEs, Deaths, and Discontinuations Due to TEAEs
An adverse event (AE) is any untoward medical occurrence, whether or not the event is considered related to the study drug. A serious AE is any AE that: results in death; is life threatening; requires hospitalization or prolongation of existing hospitalization; results in disability/incapacity; is a congenital anomaly/birth defect; is an important medical event. TEAEs are defined as AEs with an onset date on or after the first dose of study medication until study discontinuation. The Investigator assessed the causal relationship of each TEAE to the study drug as not related, possibly related, or probably related. From the first dose of study treatment through 30 days after the final dose (mean [SD] duration of treatment was 9.13 [6.838] months).

[1] = Non-serious adverse events, Age 0 to <2 Months

O=C(CCCc1ccccc1)OCC(COC(=O)CCCc1ccccc1)OC(=O)CCCc1ccccc1 [RAVICTI, benzenebutanoic acid, 1′,1″-(1,2,3-propanetriyl) ester]
Serious AE Feeding Disorder: Occurrences causally related to treatment/all (Age 2 Months to <2 Years): 0/0 | Serious AE Gastroenteritis: Deaths causally related to treatment/all (Age 2 Months to <2 Years): 0/0 | Serious AE Gastroenteritis: Occurrences causally related to treatment/all (Age 2 Months to <2 Years): 0/1 | Serious AE Hyperammonaemia: Deaths causally related to treatment/all (Age 2 Months to <2 Years): 0/0 | Serious AE Hyperammonaemia: Occurrences causally related to treatment/all (Age 2 Months to <2 Years): 0/7 | Serious AE Influenza: Deaths causally related to treatment/all (Age 2 Months to <2 Years): 0/0 | Serious AE Influenza: Occurrences causally related to treatment/all (Age 2 Months to <2 Years): 0/1 | Serious AE Lethargy: Deaths causally related to treatment/all (Age 2 Months to <2 Years): 0/0 | Serious AE Lethargy: Occurrences causally related to treatment/all (Age 2 Months to <2 Years): 0/0 | Serious AE Medical device site infection: Deaths causally related to treatment/all (Age 2 Months to <2 Years): 0/0 | Serious AE Medical device site infection: Occurrences causally related to treatment/all (Age 2 Months to <2 Years): 0/0 | Serious AE Meningitis bacterial: Deaths causally related to treatment/all (Age 2 Months to <2 Years): 0/0 | Serious AE Meningitis bacterial: Occurrences causally related to treatment/all (Age 2 Months to <2 Years): 0/0 | Serious AE Neutropenia: Deaths causally related to treatment/all (Age 2 Months to <2 Years): 0/0 | Serious AE Neutropenia: Occurrences causally related to treatment/all (Age 2 Months to <2 Years): 0/0 | Serious AE Peritonitis: Deaths causally related to treatment/all (Age 2 Months to <2 Years): 0/1 | Serious AE Peritonitis: Occurrences causally related to treatment/all (Age 2 Months to <2 Years): 0/1 | Serious AE Pneumatosis intestinalis: Deaths causally related to treatment/all (Age 2 Months to <2 Years): 0/1 | Serious AE Pneumatosis intestinalis: Occurrences causally related to treatment/all (Age 2 Months to <2 Years): 0/1 | Serious AE Pyrexia: Deaths causally related to treatment/all (Age 2 Months to <2 Years): 0/0 | Serious AE Pyrexia: Occurrences causally related to treatment/all (Age 2 Months to <2 Years): 0/1 | Serious AE Respiratory syncytial virus infection: Deaths causally related to treatment/all (Age 2 Months to <2 Years): 0/0 | Serious AE Rhinovirus infection: Deaths causally related to treatment/all (Age 2 Months to <2 Years): 0/0 | Serious AE Status asthmaticus: Deaths causally related to treatment/all (Age 2 Months to <2 Years): 0/0 | Serious AE Status asthmaticus: Occurrences causally related to treatment/all (Age 2 Months to <2 Years): 0/1 | Serious AE Tracheitis: Deaths causally related to treatment/all (Age 2 Months to <2 Years): 0/0 | Serious AE Tracheitis: Occurrences causally related to treatment/all (Age 2 Months to <2 Years): 0/0 | Serious AE Upper respiratory tract infection: Deaths causally related to treatment/all (Age 2 Months to <2 Years): 0/0 | Serious AE Upper respiratory tract infection: Occurrences causally related to treatment/all (Age 2 Months to <2 Years): 0/0 | Serious AE Urinary tract infection: Deaths causally related to treatment/all (Age 2 Months to <2 Years): 0/0 | Serious AE Urinary tract infection: Occurrences causally related to treatment/all (Age 2 Months to <2 Years): 0/1 | Serious AE Viral infection: Deaths causally related to treatment/all (Age 2 Months to <2 Years): 0/0 | Serious AE Viral infection: Occurrences causally related to treatment/all (Age 2 Months to <2 Years): 0/2 | Serious AE Viral upper respiratory tract infection: Deaths causally related to treatment/all (Age 2 Months to <2 Years): 0/0 | Serious AE Viral upper respiratory tract infection: Occurrences causally related to treatment/all (Age 2 Months to <2 Years): 0/1 | Serious AE Vomiting: Deaths causally related to treatment/all (Age 2 Months to <2 Years): 0/0 | Serious AE Vomiting: Occurrences causally related to treatment/all (Age 2 Months to <2 Years): 0/0 | Agitation, Occurrences (all) [1]: 1 | Alanine aminotransferase increased, Occurrences (all) [1]: 1 | Amino acid level decreased, Occurrences (all) [1]: 1 | Amino acid level increased, Occurrences (all) [1]: 2 | Ammonia increased, Occurrences (all) [1]: 1 | Anaemia, Occurrences (all) [1]: 3 | Angular cheilitis, Occurrences (all) [1]: 2 | Anion gap increased, Occurrences (all) [1]: 1 | Apnoea, Occurrences (all) [1]: 0 | Arthropod bite, Occurrences (all) [1]: 1 | Aspartate aminotransferase increased, Occurrences (all) [1]: 1 | Blood bicarbonate decreased, Occurrences (all) [1]: 1 | Blood urea decreased, Occurrences (all) [1]: 1 | Body height below normal, Occurrences (all) [1]: 1 | Candida infection, Occurrences (all) [1]: 2 | Carbon dioxide decreased, Occurrences (all) [1]: 2 | Cardiac disorders (Tachycardia), Occurrences (all) [1]: 1 | Catheter site rash, Occurrences (all) [1]: 1 | Conjunctivitis, Occurrences (all) [1]: 0 | Constipation, Occurrences (all) [1]: 2 | Cough, Occurrences (all) [1]: 5 | Croup infectious, Occurrences (all) [1]: 2 | Dacryostenosis congenital, Occurrences (all) [1]: 0 | Decreased appetite, Occurrences (all) [1]: 2 | Dehydration, Occurrences (all) [1]: 4 | Dermatitis diaper, Occurrences (all) [1]: 6 | Device occlusion, Occurrences (all) [1]: 1 | Diarrhoea, Occurrences (all) [1]: 6 | Drug withdrawal syndrome, Occurrences (all) [1]: 1 | Dysphagia, Occurrences (all) [1]: 1 | Ear and labyrinth disorders (Excessive cerumen production), Occurrences (all) [1]: 0 | Ear infection, Occurrences (all) [1]: 3 | Eczema, Occurrences (all) [1]: 2 | Eye discharge, Occurrences (all) [1]: 1 | Feeding disorder of infancy or early childhood, Occurrences (all) [1]: 1 | Flatulence, Occurrences (all) [1]: 3 | Gamma-glutamyltransferase increased, Occurrences (all) [1]: 1 | Gastroenteritis, Occurrences (all) [1]: 1 | Gastrointestinal viral infection, Occurrences (all) [1]: 1 | Gastrooesophageal reflux disease, Occurrences (all) [1]: 6 | Gross motor delay, Occurrences (all) [1]: 0 | Hepatic enzyme increased, Occurrences (all) [1]: 2 | Hepatobiliary disorders (Hepatic calcification), Occurrences (all) [1]: 1 | Hyperammonaemia, Occurrences (all) [1]: 3 | Hypophagia, Occurrences (all) [1]: 1 | Immune System Disorders (Seasonal allergy), Occurrences (all) [1]: 0
